18 compounds from patent publication US7812037B2, “Dual antiplatelet/anticoagulant pyridoxine analogs” (Medicure International, Inc., priority 2004, dated 2010) can be followed below.

In test [1] the test system is platelets (platelet rich plasma). Kind of test: Inhibition of platelet aggregation, collagen as agonist. Conditions: human PRP; for inhibition at 50 µM: compound 50 μM; for inhibition at 100 µM: compound 100 μM; for inhibition at 30 µM: compound 30 μM. The class given is cell-based. As to the method:
(§1) Platelet rich plasma (PRP) was obtained by drawing whole blood from normal human donors (not on any medication) into sodium citrate tubes (3.2%), and centrifuging at 160×g for about 10 minutes. Platelet poor plasma (PPP) was obtained by centrifuging the remainder of the sample after the platelets were removed at 800×g for about 10 minutes. The PRP was adjusted to a count of 280×10^9/L using a mixture of PRP and PPP. The platelets (200 μL) were incubated with the test compounds (25 μL) adjusted to various concentrations (5, 10, 20, 30, 50, and 100 μM) for about 30 minutes at room temperature (approximate final platelet count in the incubation mixture of 250×10^9/L). The samples were incubated for about 3 minutes at about 37° C., and then transferred to the mixing wells of a Chrono-log 4 channel aggregometer (Chrono-log Corp., Havertown, Pa.). After baselines were established, agonist (25 μL of 40 μM ADP (Sigma, St. Louis, Mo.) or 25 μL of 50 μg/mL and 10 μg/mL collagen (Helena Laboratories, Beaumont, Tex.) or 25 μL of 120 μM thrombin receptor activating peptide (TRAP) (Sigma)) was then added. Aggregation was monitored for 5 minutes at 37° C. with stirring (1000 rpm). The amplitude and slope of each tracing were calculated to determine the amount of aggregation. Control samples were performed using only solvent. The % reduction in aggregation was calculated for each sample compared to the proper solvent control.

The test system is the same in test [2]. The test is described as follows: Inhibition of platelet aggregation, ADP as agonist. The format is cell-based. The note with it: ADP 4 μM, human PRP, read-out: % Reduction in Aggregation ADP (4 μM); for inhibition at 30 µM: compound 30 μM. As to the method:
as §1

The test system is the same in test [3]. Kind of test: Inhibition of platelet aggregation, thrombin receptor activating peptide (TRAP) as agonist. Conditions: TRAP 12 μM, human PRP, read-out: % Reduction in Aggregation TRAP (12 μM); for inhibition at 30 µM: compound 30 μM. The format is cell-based. As to the method: as §1
Test [4] addresses T1, Human FXa (Homo sapiens, UniProt P00742).
T1 construct: Determination of Anti-Factor Xa (Fxa) Activity; purchased Calbiochem
The test is described as follows: Determination of Anti-Factor Xa (Fxa) Activity. The class given is biochemical. The note with it: competitive inhibition; substrate Pefachrome Xa; pH 7.5. On the procedure: The test compounds (40 μL) adjusted to various concentrations (0.25 to 100 μM) were incubated with 5 nM Human FXa (Calbiochem, San Diego, Calif.) enzyme in 125 mM Tris [Tris(hydroxymethyl)aminomethane] buffer (pH 7.5) containing 375 mM sodium chloride and 0.25% polyethylene glycol (MW 8000) (80 μL) at room temperature for about 30 minutes. 80 μL of synthetic substrate Pefachrome® Xa (Pentapharm, Basel, Switzerland), adjusted to various concentrations from 125 μM to 1.25 mM, was added. The activity was measured at 37° C. by monitoring absorbance at 405 nm for 15 minutes using a FLUOstar OPTIMA™ (BMG Labtech GmbH, Offenburg, Germany) microplate reader. Control sample was the solvent alone. Each test compound was analyzed twice using 4 concentrations of compound plus control (in duplicate) with 5 concentrations of substrate (50, 100, 200, 300 and 500 μM). The specific activity (ΔA405/min/nM enzyme) was determined for each data point. The Ki for competitive inhibition was then determined for each test compound using the Enzyme Kinetics module of Sigmaplot 8.0 (SPSS Inc., Chicago, Ill.).

The target of test [5] is T2, Human Thrombin (Homo sapiens, UniProt P00734).
T2 construct: Determination of Anti-Thrombin (Factor IIa) Activity; purchased Calbiochem
Kind of test: Determination of Anti-Thrombin (Factor IIa) Activity. The class given is biochemical. The note with it: competitive inhibition; substrate Pefachrome Thr; pH 8.3. As to the method: The test compounds (40 μL) adjusted to various concentrations (0.25 to 100 μM) were incubated with Human Thrombin (Calbiochem) enzyme (5 nM) in 31 mM Tris buffer (pH 8.3) containing 81 mM sodium chloride and 0.63% bovine serum albumin (fraction V)(80 μL) at room temperature for about 30 minutes. 80 μL of Pefachrome® Thr (Pentapharm) was adjusted to various concentrations, from 62.5 μM to 1.25 mM. The activity was measured at about 37° C. by monitoring absorbance at 405 nm for about 15 minutes using a FLUOstar OPTIMA™. Control sample was the solvent alone. Each test compound was analyzed twice using 4 concentrations of compound plus control (in duplicate) with 5 concentrations of substrate (50, 100, 200, 300 and 500 μM). The specific activity (ΔA405/min/nM enzyme) was determined for each data point. The Ki for competitive inhibition was then determined for each test compound using the Enzyme Kinetics module of Sigmaplot 8.0 (SPSS).

The mark [6] stands for this setting: collagen 1 μg/mL, read-out: % Reduction in Aggregation Collagen (1 μg/mL).
Where [7] appears, read: collagen 5 μg/mL, read-out: % Reduction in Aggregation Collagen (5 μg/mL).

T1 sequence (P00742 235-488 limits assumed): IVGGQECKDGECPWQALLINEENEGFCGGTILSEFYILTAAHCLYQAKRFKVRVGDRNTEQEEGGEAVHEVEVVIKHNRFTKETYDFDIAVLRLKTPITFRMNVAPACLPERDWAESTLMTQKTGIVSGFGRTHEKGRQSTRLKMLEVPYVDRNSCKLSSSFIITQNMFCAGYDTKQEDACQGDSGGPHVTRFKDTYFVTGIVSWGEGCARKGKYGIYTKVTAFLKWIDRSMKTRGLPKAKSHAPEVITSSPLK
T1 sequence (P00742 41-179 partner limits assumed): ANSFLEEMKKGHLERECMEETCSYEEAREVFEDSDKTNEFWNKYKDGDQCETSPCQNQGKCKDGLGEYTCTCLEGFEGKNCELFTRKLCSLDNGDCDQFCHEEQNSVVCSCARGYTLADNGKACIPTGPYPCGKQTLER

Regarding `Cc1ncc(CO)c(CNc2ccc(C(=N)N)cc2)c1OCc1ccc(C(=N)N)cc1` [Compound 3, 4-{[3-(4-Carbamimidoyl-benzyloxy)-5-hydroxymethyl-2-methyl-pyridin-4-ylmethyl]-amino}-benzamidine], the inhibition at 50 µM in test [1] (setting [6]) was 20%; in test [1] (setting [7]), 0%; in test [2] (compound 50 μM), 27%; in test [3] (compound 50 μM), 81%.
For orientation: Ki means a measure of affinity in units of concentration, obtained from inhibition or displacement. Read a low Ki as tighter binding. For the compound `Cc1ncc(COc2ccc(C(=N)N)cc2)c(CO)c1OCc1ccc(C(=N)N)cc1` [Compound 15, 4-(5-(4-Carbamimidoyl-benzyloxy)-4-hydroxymethyl-6-methyl-pyridin-3-ylmethoxy)-benzamidine], the inhibitory constant (Ki) was 11 µM in test [4] and 1.65 µM in test [5].
For `Cc1ncc(COc2ccc(C(=N)N)cc2)c(C(F)F)c1OCc1ccc(C(=N)N)cc1` [Compound 21, 4-[4,4-Difluoromethyl-6-methyl-5-(4-carbamimidoyl-benzyloxy)-pyridin-3-ylmethoxy]-benzamidine] the same measures were 19 µM and 0.51 µM.
For the compound `Cc1ncc(CNc2ccc(-c3ccc(C(=N)N)cc3)cc2)c(CNCCCCCC(=O)O)c1O` [Compound 46, 6-({5-[(4′-Carbamimidoyl-biphenyl-4-ylamino)-methyl]-3-hydroxy-2-methyl-pyridin-4-ylmethyl}-amino)-hexanoic acid], the inhibition at 100 µM in test [1] (setting [6]) turned out to be 35%; in test [1] (setting [7]), 19%; in test [2] (compound 100 μM), 46%; in test [3] (compound 100 μM), 29%.
For `Cc1ncc(CNc2ccc(C(=N)N)cc2)c(CNCCCCCC(=O)O)c1OCc1ccc(C(=N)N)cc1` [Compound 54, 6-({3-(4-Carbamimidoyl-benzyloxy)-5-[(4-carbamimidoyl-phenylamino)-methyl]-2-methyl-pyridin-4-ylmethyl}-amino)-hexanoic acid], the inhibition at 30 µM in test [1] (setting [6]) was 15%; in test [1] (setting [7]), 13%; in test [2], 23%; in test [3], 53%.
The matching figures for `Cc1ncc(CNc2ccc(-c3ccc(C(=N)N)cc3)cc2F)c(CO)c1OCc1ccc(C(=N)N)cc1` [Compound 63, 4′-{[5-(4-Carbamimidoyl-benzyloxy)-4-hydroxymethyl-6-methyl-pyridin-3-ylmethyl]-amino}-3′-fluoro-biphenyl-4-carboxamidine]: 95%, 41%, 95% and 94%.
`Cc1ncc(COc2ccc(C(=N)N)cc2)c(C)c1OCc1cccc(C(=N)N)c1` [Compound 70, 4-[4,6-Dimethyl-5-(3-carbamimidoyl-benzyloxyl)-pyridin-3-ylmethoxy]-benzamidine]: the inhibitory constant (Ki) in test [4] was 9 µM; in test [5], 0.7 µM.
The matching figures for `Cc1ncc(CNC(=O)c2ccc(C(=N)N)cc2)c(CO)c1OCc1ccc(C(=N)N)cc1` [Compound 73, 4-Carbamimidoyl-N-[5-(4-carbamimidoyl-benzyloxy)-4-hydroxymethyl-6-methyl-pyridin-3-ylmethyl]-benzamide]: 3.5 µM and 0.72 µM.
For `CCc1c(CNc2ccc(C(=N)N)cc2)cnc(C)c1OCc1cccc(C(=N)N)c1` [Compound 103, 3-{5-[(4-Amidino-phenylamino)-methyl]-4-ethyl-2-methyl-pyridin-3-yloxymethyl}-benzamidine] the same measures were 0.961 µM and 0.047 µM.
In the case of `Cc1ncc(CNc2ccc(C(=N)N)cc2)c(CF)c1OCc1cccc(C(=N)N)c1` [Compound 108, 4-{[4-Fluoromethyl-5-(3-amidine-benzyloxy)-6-methyl-pyridin-3-ylmethyl]-amino}-benzamidine], the Ki in test [4] came out at 0.378 µM.
As to `Cc1ncc(CNc2ccc(C(=N)N)cc2)cc1OCc1cccc(C(=N)N)c1` [Compound 136, 4-((5-(3-amidinebenzyloxy)-6-methylpyridin-3-yl)methylamino)benzamidine], the Ki was found to be 0.503 µM in test [4] and 0.333 µM in test [5].
For `Cc1c(CNc2ccc(C(=N)N)cc2)cnc(CO)c1OCc1cccc(C(=N)N)c1` [Compound 138, 4-{[5-(3-Amidine-benzyloxy)-6-hydroxymethyl-4-methyl-pyridin-3-ylmethyl]-amino}-benzamidine], the Ki in test [4] came out at 0.412 µM; in test [5], 0.039 µM.
For `Cc1c(CNc2ccc(C(=N)N)cc2)cnc(CF)c1OCc1cccc(C(=N)N)c1` [Compound 140, 4-{[5-(3-Amidine-benzyloxy)-6-fluoro-methyl-4-methyl-pyridin-3-ylmethyl]-amino}-benzamidine], the Ki in test [4] was found to be 0.423 µM; in test [5], 0.017 µM.
For `Cc1c(CNc2ccc(C(=N)N)cc2)cnc(C=O)c1OCc1cccc(C(=N)N)c1` [Compound 142, 4-{[5-(3-Amidine-benzyloxy)-6-formyl-4-methyl-pyridin-3-ylmethyl]-amino}-benzamidine] the same measures were 0.589 µM and 0.186 µM.
For `N=C(N)c1ccc(NCc2cnc(CF)c(OCc3cccc(C(=N)N)c3)c2CF)cc1` [Compound 148, 4-{[4,6-Bis-fluoromethyl-5-(3-amidine-benzyloxy)-pyridin-3-ylmethyl]-amino}-benzamidine] the same measures were 0.473 µM and 0.009 µM.
The matching figures for `N=C(N)c1ccc(COc2c(CF)ncc(CNc3ccc(C(=N)N)cc3)c2CF)cc1` [Compound 153, 4-{5-[(4-Carbamimidoyl-phenylamino)-methyl]-2,4-bis-fluoromethyl-pyridin-3-yloxymethyl}-benzamidine]: 0.665 µM and 0.012 µM.
Consider `Cc1nc(C2CC2)c(CNc2ccc(C(=N)N)cc2)c(CO)c1OCc1cccc(C(=N)N)c1` [Compound 172, 3-{5-[(4-Carbamimidoyl-phenylamino)-methyl]-6-cyclopropyl-4-hydroxymethyl-2-methyl-pyridin-3-yloxymethyl}-benzamidine], for which the Ki in test [4] amounted to 0.38 µM; in test [5] it was 0.041 µM.
The matching figures for `Cc1nc(C2CC2)c(CNc2ccc(C(=N)N)cc2)c(CO)c1OCc1ccc(C(=N)N)cc1` [Compound 174, 4-{5-[(4-Carbamimidoyl-phenylamino)-methyl]-6-cyclopropyl-4-hydroxymethyl-2-methyl-pyridin-3-yloxymethyl}-benzamidine]: 1.08 µM and 0.037 µM.
